From patent US9023789B2, “Amylin analogs and pharmaceutical compositions thereof” (Novo Nordisk A/S, priority 2012, dated 2015)
Like-named read-outs stand apart in the source and are kept apart here. Numbered stars: 1 amine (or outer) side, 2 acyl side, 3 side chain; on linkers, the order of the positions; unused ones are H or OH. Bridge positions count the residues as written; N and C are the ends. Peptide text beside a SMILES is read from it. * marks the point of attachment. C20 diacid = O=C(O)CCCCCCCCCCCCCCCCCCC(=O)*; γGlu = O=C(O)[C@H](CCC(=O)[*:2])N[*:1]

Tests used:
[1] = target: T1, human amylin 3(a) receptor (human calcitonin receptor + RAMP-3) in BHK570 cells (Homo sapiens, UniProt O60896+P30988); test: ASSAY (II)a functional assay, human amylin receptor (CRE luciferase); assay type: cell-based
T1 construct: expressed in transfected cells
Text: 1. Luciferase Assay Outline
Activation of calcitonin and amylin (coexpression of calcitonin receptor and receptor activity modifying proteins (RAMP)) receptors lead to increased intracellular concentrations of cAMP. Consequently, transcription is activated by promoters containing multiple copies of the cAMP response element (CRE). It is thus possible to measure amylin activity by the use of a CRE luciferase reporter gene introduced into BHK cells also expressing calcitonin or amylin receptors.
2. Construction of Calcitonin (a)- and Amylin 3(a)-Receptor/CRE-Luc Cell Line.
The cell line was further transfected with RAMP-3, using standard methods. This turns the calcitonin receptor into an amylin 3(a) receptor. Methotrexate, Neomycin, and Hygromycin are selection markers for luciferase, the calcitonin receptor, and RAMP-3, respectively.
To perform activity assays, BHK calcitonin (a) receptor- or amylin 3(a)-receptor/CRE-luc cells were seeded in white 96 well culture plates at a density of about 20.000 cells/well. […] After incubation overnight at 37° C. and 5% CO2, the growth medium was replaced by 50 μl/well assay medium (DMEM (without phenol red), Glutamax™, 10% FBS, and 10 mM Hepes, pH 7.4). Further, 50 μl/well of standard or sample in assay buffer were added. After 3 hours incubation at 37° C. and 5% CO2, the assay medium with standard or sample were removed and replaced by 100 μl/well PBS. Further, 100 μl/well LucLite™ was added. The plates were sealed and incubated at room temperature for 30 minutes. Finally, luminescence was measured on a TopCounter (Packard) in SPC (single photon counting) mode.

[2] = ASSAY (III) ThT fibrillation assay for physical stability; assay type: physicochemical
Text: Assay (III)—ThT Fibrillation Assays for the Assessment of Physical Stability of Protein Formulations Low physical stability of a polypeptide may lead to amyloid fibril formation, which is observed as well-ordered, thread-like macromolecular structures in the sample eventually resulting in gel formation. This has traditionally been measured by visual inspection of the sample. However, that kind of measurement is very subjective and depending on the observer. Therefore, the application of a small molecule indicator probe is much more advantageous. Thioflavin T (ThT) is such a probe and has a distinct fluorescence signature when binding to fibrils [Naiki et al. (1989) Anal. […] LeVine (1999) Methods. Enzymol. […], 274-284]. The time course for fibril formation can be described by a sigmoidal curve with the following expression [Nielsen et al. (2001) Biochemistry 40, 6036-6046]; […] Here, F is the ThT fluorescence at the time t. The constant t0 is the time needed to reach 50% of maximum fluorescence. […] Few of those intermediates nucleate to form a template onto which further intermediates may assembly and the fibrillation proceeds. The lag-time corresponds to the interval in which the critical mass of nucleus is built up and the apparent rate constant is the rate with which the fibril itself is formed. Sample Preparation Samples were prepared freshly before each assay. Each sample composition is described in each example. The pH of the sample was adjusted to the desired value using appropriate amounts of concentrated NaOH and HClO4 or HCl. Thioflavin T was added to the samples from a stock solution in H2O to a final concentration of 1 μM. Sample aliquots of 200 μl were placed in a 96 well microtiter plate (Packard OptiPlate™96, white polystyrene). Usually, four or eight replica of each sample (corresponding to one test condition) were placed in one column of wells. The plate was sealed with Scotch Pad (Qiagen). Incubation and Fluorescence Measurement Incubation at given temperature, shaking and measurement of the ThT fluorescence emission were done in a Fluoroskan Ascent FL fluorescence platereader or Varioskan platereader (Thermo Labsystems). The temperature was adjusted to 37° C. The orbital shaking was adjusted to 960 rpm with an amplitude of 1 mm in all the presented data. Fluorescence measurement was done using excitation through a 444 nm filter and measurement of emission through a 485 nm filter. Each run was initiated by incubating the plate at the assay temperature for 10 min. The plate was measured every 20 minutes for a desired period of time. Between each measurement, the plate was shaken and heated as described. Data Handling The measurement points were saved in Microsoft Excel format for further processing and curve drawing and fitting was performed using GraphPad Prism. The background emission from ThT in the absence of fibrils was negligible. The data points are typically a mean of four or eight samples and shown with standard deviation error bars. Only data obtained in the same experiment (i.e. samples on the same plate) are presented in the same graph ensuring a relative measure of fibrillation between experiments. The data set may be fitted to Eq. […] However, since full sigmodial curves in this case are not always achieved during the measurement time, the degree of fibrillation is expressed as ThT fluorescence tabulated as the mean of the samples and shown with the standard deviation at various time points. Measurement of Initial and Final Concentrations The polypeptide concentration in each of the tested formulations were measured both before application in the ThT fibrillation assay (“Initial”) and after completion of the ThT fibrillation (“After ThT assay”). Concentrations were determined by reverse HPLC methods using a pramlintide standard as a reference. Before measurement after completion 150 μl was collected from each of the replica and transferred to an Eppendorf tube. These were centrifuged at 30000 G for 40 mins. […]

[3] = ASSAY (IV) determination of solubility; assay type: physicochemical
Protocol: Assay (IV)—Determination of Solubility
The polypeptide was dissolved in water at −500 nmol/ml and mixed 1:1 with a series of buffers (100 mM glycylglycine pH 3.0, 100 mM glycylglycine pH 4.0, 100 mM glycylglycine pH 5.0, 100 mM bistrispropane pH 6.0, 100 mM bistrispropane pH 6.5, 100 mM bistrispropane pH 7.0, 100 mM bistrispropane pH 7.5, 100 mM bistrispropane pH 8.0). After 18 hours at room temperature the samples were centrifuged and the polypeptide concentration determined by UPLC.

[4] = target: T2, human amylin receptor (membranes from Amylin 3(a)/CRE-luc cells) (Homo sapiens, UniProt O60896+P30988); test: ASSAY (V) binding to the human amylin receptor (SPA, 125I-rat amylin);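 also: competition binding of cell membranes (35 ng/µL) mixed with SPA beads in 384-well plates at 40 µL total volume, read by scintillation counting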
T2 construct: expressed in transfected cells
T2 sequence (P30988 25-474): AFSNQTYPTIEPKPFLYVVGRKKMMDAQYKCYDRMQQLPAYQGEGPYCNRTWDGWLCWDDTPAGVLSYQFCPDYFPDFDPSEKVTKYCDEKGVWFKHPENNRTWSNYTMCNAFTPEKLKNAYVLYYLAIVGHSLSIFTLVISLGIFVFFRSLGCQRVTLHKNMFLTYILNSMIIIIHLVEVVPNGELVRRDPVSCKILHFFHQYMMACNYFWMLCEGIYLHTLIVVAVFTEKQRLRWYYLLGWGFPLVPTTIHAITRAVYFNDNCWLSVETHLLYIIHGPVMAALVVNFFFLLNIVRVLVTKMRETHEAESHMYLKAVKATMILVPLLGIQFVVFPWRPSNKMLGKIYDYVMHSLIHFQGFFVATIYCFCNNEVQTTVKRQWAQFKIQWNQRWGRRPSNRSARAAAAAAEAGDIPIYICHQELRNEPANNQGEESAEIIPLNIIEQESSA
T2 sequence (O60896 24-148 partner): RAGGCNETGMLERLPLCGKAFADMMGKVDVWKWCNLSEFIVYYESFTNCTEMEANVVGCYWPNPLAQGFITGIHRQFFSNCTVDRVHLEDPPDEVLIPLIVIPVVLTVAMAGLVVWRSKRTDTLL

rat calcitonin receptor = target: T3, rat calcitonin receptor (Rattus norvegicus, UniProt P32214); test: ASSAY (VIII) binding to the rat calcitonin receptor; settings: Table 7, read-out: rCTR bind IC50
T3 construct: expressed in transfected cells; host or cells: BHK tk'ts 13 (transient, FuGENE 6), membranes
T3 sequence (P32214 25-479 isoform P32214-2 limits assumed): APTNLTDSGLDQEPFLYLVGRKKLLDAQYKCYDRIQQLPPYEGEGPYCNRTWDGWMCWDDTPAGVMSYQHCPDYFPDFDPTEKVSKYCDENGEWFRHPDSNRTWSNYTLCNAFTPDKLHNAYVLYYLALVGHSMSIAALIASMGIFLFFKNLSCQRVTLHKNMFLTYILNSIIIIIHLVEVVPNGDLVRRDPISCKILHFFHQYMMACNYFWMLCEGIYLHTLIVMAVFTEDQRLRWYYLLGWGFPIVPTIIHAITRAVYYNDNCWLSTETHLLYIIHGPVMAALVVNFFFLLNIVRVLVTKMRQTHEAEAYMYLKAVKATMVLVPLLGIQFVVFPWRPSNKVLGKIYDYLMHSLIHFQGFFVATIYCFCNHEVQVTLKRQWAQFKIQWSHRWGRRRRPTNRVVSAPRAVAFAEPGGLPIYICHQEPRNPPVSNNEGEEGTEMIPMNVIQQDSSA
Protocol: Assay (VIII)—Determination of Binding to the Rat Calcitonin Receptor
The BHK tk′ts 13 cells were transiently transfected with rat calcitonin receptor using FuGENE® 6 (Roche), according to the manufacturer's recommendations. Cells were grown in DMEM with 10% FBS and 1% Pen/Strep. Approximately 48 hours after transfection, the cells were harvested and membranes were prepared.

[5] = bistrispropane buffer, pH 6.5, read-out: Solubility pH 6.5 Concentration
[6] = bistrispropane buffer, pH 7.5, read-out: Solubility pH 7.5 Concentration
[7] = bistrispropane buffer, pH 6.0, read-out: Solubility pH 6.0 Concentration
[8] = bistrispropane buffer, pH 7.0, read-out: Solubility pH 7.0 Concentration
[9] = bistrispropane buffer, pH 8.0, read-out: Solubility pH 8.0 Concentration
[10] = glycylglycine buffer, pH 3.0, read-out: Solubility pH 3.0 Concentration
[11] = glycylglycine buffer, pH 4.0, read-out: Solubility pH 4.0 Concentration
[12] = glycylglycine buffer, pH 5.0, read-out: Solubility pH 5.0 Concentration

Ratio hCT/hAmylin funct. ([1]; hCTR funct. EC50 / hAmylin-R funct. EC50)	Ratio hCT/hAmylin funct. ([1]; hCTR funct. EC50 divided by hAmylin-R funct. EC50)	Ratio hCT/hAmylin funct. ([1]; hCTR funct. EC50 over hAmylin-R funct. EC50)	Ratio hCT/hAmylin funct. ([1]; human functional selectivity: hCTR funct. EC50 / hAmylin-R funct. EC50)	ThT pH 4.0 lag time (h) [2]	solubility at 18 h [3, 5]	solubility at 18 h [3, 6]	solubility at 18 h [3, 7]	solubility at 18 h [3, 8]	solubility at 18 h [3, 9]	solubility at 18 h [3, 10]	solubility at 18 h [3, 11]	solubility at 18 h [3, 12]	Ratio hCT/hAmylin binding ([4]; Table 5, selectivity, hCTR bind IC50 / hAmylin-R bind IC50)	Ratio hCT/hAmylin binding ([4]; Table 7, human binding selectivity, included for comparison)	IC50 (rat calcitonin receptor)	Compound
1.6	1.6	1.6	1.6	45 h	≥ 200 µM	≥ 200 µM	≥ 200 µM	≥ 200 µM	≥ 200 µM	≥ 200 µM	≥ 200 µM	≥ 200 µM	2.2	2.2	–	CC[C@H](C)[C@H](NC(=O)[C@H](C)NC(=O)CNC(=O)[C@H](Cc1ccccc1)NC(=O)[C@H](CC(N)=O)NC(=O)[C@@H]1CCCN1C(=O)[C@H](CO)NC(=O)[C@H](CO)NC(=O)[C@H](Cc1c[nH]cn1)NC(=O)[C@H](CCCNC(=N)N)NC(=O)[C@H](CC(C)C)NC(=O)[C@H](Cc1ccccc1)NC(=O)[C@H](CCC(=O)O)NC(=O)[C@H](C)NC(=O)[C@H](CC(C)C)NC(=O)[C@H](CCCNC(=N)N)NC(=O)[C@H](CCC(N)=O)NC(=O)[C@@H](NC(=O)[C@H](C)NC(=O)[C@@H]1CSSC[C@H](NC(=O)[C@H](CCCCN)NC(=O)CC[C@H](NC(=O)CC[C@H](NC(=O)CCCCCCCCCCCCCCCCCCC(=O)O)C(=O)O)C(=O)O)C(=O)N[C@@H](CC(N)=O)C(=O)N[C@@H]([C@@H](C)O)C(=O)N[C@@H](C)C(=O)N[C@@H]([C@@H](C)O)C(=O)N1)[C@@H](C)O)C(=O)N1CCC[C@H]1C(=O)N[C@@H](CO)C(=O)N[C@@H](CO)C(=O)N[C@H](C(=O)N[C@@H](CC(N)=O)C(=O)N[C@H](C(=O)NCC(=O)N[C@@H](CO)C(=O)N[C@@H](CC(N)=O)C(=O)N[C@H](C(=O)N1CCC[C@H]1C(N)=O)[C@@H](C)O)C(C)C)[C@@H](C)O [Example 14] ({C20 diacid-γGlu-γGlu}-KCNTATCATQRLAEFLRHSSPNFGAIPSSTNVGSNTP-NH2; disulfide 2-7)
–	–	–	–	–	≥ 200 µM	≥ 200 µM	≥ 200 µM	≥ 200 µM	≥ 200 µM	≥ 200 µM	≥ 200 µM	≥ 200 µM	–	–	30.9 nM	CC[C@H](C)[C@H](NC(=O)[C@H](C)NC(=O)CNC(=O)[C@H](Cc1ccccc1)NC(=O)[C@H](CC(N)=O)NC(=O)[C@@H]1CCCN1C(=O)[C@H](CO)NC(=O)[C@H](CO)NC(=O)[C@H](Cc1c[nH]cn1)NC(=O)[C@H](CCCNC(=N)N)NC(=O)[C@H](CC(C)C)NC(=O)[C@H](Cc1ccccc1)NC(=O)[C@H](CC(=O)O)NC(=O)[C@H](C)NC(=O)[C@H](CC(C)C)NC(=O)[C@H](CCCNC(=N)N)NC(=O)[C@H](CCC(N)=O)NC(=O)[C@@H](NC(=O)[C@H](C)NC(=O)[C@@H]1CSSC[C@H](NC(=O)[C@@H](N)CCCCN)C(=O)N[C@@H](CC(N)=O)C(=O)N[C@@H]([C@@H](C)O)C(=O)N[C@@H](C)C(=O)N[C@@H]([C@@H](C)O)C(=O)N1)[C@@H](C)O)C(=O)N1CCC[C@H]1C(=O)N[C@@H](CO)C(=O)N[C@@H](CO)C(=O)N[C@H](C(=O)N[C@@H](CC(N)=O)C(=O)N[C@H](C(=O)NCC(=O)N[C@@H](CO)C(=O)N[C@@H](CCCNC(=N)N)C(=O)N[C@H](C(=O)N[C@@H](Cc1ccc(O)cc1)C(N)=O)[C@@H](C)O)C(C)C)[C@@H](C)O [Example 132]
